Source: paper PMC5369982, “Near infrared fluorescent imaging of choline kinase alpha expression and inhibition in breast tumors” (Oncotarget, 2017)
Like-named read-outs stand apart in the source and are kept apart here.

Tests used:
4175-Luc+ tumors = test: NIRF optical imaging, JAS239 biodistribution in mice bearing 4175-Luc+ tumors; assay type: in vivo, mouse
Experimental: Bioluminescence and NIRF (Ex. 745 nm; Em. 800 nm) images were acquired in an IVIS Spectrum (PerkinElmer). NIRF is measured in Average Radiant Efficiency, photons per second (p/sec) corrected for the area of the region of interest (ROI) and the efficiency of the lamp (μ Watt *cm^−2 / steradian^-1). For bioluminescence imaging, mice were injected i.p. with 150 mg/kg of firefly D-luciferin (Biosynth). Bioluminescent Radiance (p/sec/cm^2/sr) was monitored by time-course imaging until the luminescence intensity plateaued. For NIRF imaging, mice were injected i.v. with 100 μL vehicle or JAS239 (20 nmol). Two vehicle formulations were tested in mice bearing 4175-Luc+ tumors: the first was 0.1% Tween-80 / 50 mM Tris-HCl, and the second was 1% ethanol diluted in 0.9% saline. ROIs with a 20% threshold were created from the bioluminescence image using the LivingImage software (PerkinElmer) program, and this region was used to analyze intratumoral JAS239 accumulation in the NIRF images. Resected organs were placed in 24-well plates and NIRF was measured to quantify JAS239 biodistribution. For diagnostic studies, mice bearing both MCF7-EV and MCF7-CK+ tumors of approximately 200 μL were injected with 20 nmol JAS239 in Tween-80/Tris (8 mice) or in ethanol/saline (7 mice). The cohorts were euthanized after 90 min / 24h respectively, and tumor-bearing flanks were surgically exposed. NIRF from the tumor-bearing fat pads was subtracted from background muscle signal and the Average Radiant Efficiency measured.

[1] = tested on: MCF7-EV and MCF7-CK+ tumors; test: NIRF optical imaging of JAS239 in mice bearing MCF7-EV and MCF7-CK+ tumors; assay type: in vivo, mouse
Experimental: All animal studies were approved by the Institutional Animal Care and Use Committee of the University of Pennsylvania. Six week old female athymic nude Foxn1^nu/nu mice (National Cancer Institute) were housed in a temperature-controlled environment with 12 h light/dark cycle. Anesthesia was induced using 2% isoflurane in oxygen for all experiments. For MCF7 tumors, mice were supplemented with 60-day release 0.36 mg 17β-estradiol tablets (Innovative Research of America) using a trochar in the nape of the neck. After 1 week, 4 × 10^6 cells in Matrigel (BD Biosciences) were inoculated into the left (CK+) and contralateral (EV) mammary fat pads. Subcutaneous xenografts, including those analyzed in MRI/MRS studies, were grown on the shoulder to allow for cloaking of the kidneys during optical imaging studies. Tumor growth was determined via caliper measurement of three orthogonal dimensions and volume calculated as length * width * height * π/6.
Bioluminescence and NIRF (Ex. 745 nm; Em. 800 nm) images were acquired in an IVIS Spectrum (PerkinElmer). NIRF is measured in Average Radiant Efficiency, photons per second (p/sec) corrected for the area of the region of interest (ROI) and the efficiency of the lamp (μ Watt *cm^−2 / steradian^-1). […] Bioluminescent Radiance (p/sec/cm^2/sr) was monitored by time-course imaging until the luminescence intensity plateaued. […]

[2] = set-up: method as in PMID 10397253; conditions: cited from earlier work

CC1(C)C(=C/C=C/C=C/C=C/C2=[N+](CCO)c3ccccc3C2(C)C)N(CCO)c2ccccc21 [JAS239]
Initial hepatic clearance time (4175-Luc+ tumors; 20 nmol i.v. in Tween-80/Tris buffer): approximately 75 min
Tumor NIRF emission at 800 nm vs. control (4175-Luc+ tumors; 20 nmol i.v. in Tween-80/Tris buffer, 90 min): an order of magnitude stronger
Time of maximum NIRF contrast between tumor and background (4175-Luc+ tumors; 20 nmol i.v. in Tween-80/Tris buffer, post-injection): 90 min
Time of highest tumor signal to noise (4175-Luc+ tumors; 20 nmol i.v. in ethanol/saline vehicle, subcutaneous tumors): 24 h
Tumor-to-muscle ratio ex vivo (4175-Luc+ tumors; ethanol/saline vehicle, 24 h post-injection): nearly two-fold
Hepatic signal compared to the Tween-80/Tris vehicle (4175-Luc+ tumors; ethanol/saline vehicle, 24 h post-injection, resected organs): dropped nearly one order of magnitude
Tumor/normal tissue fluorescence ratio [1]: 2.8 ± 0.2

MN58b [reference compound]
Tolerability ([2]; 10 mg/kg): lethal
Tolerability ([2]; dosed daily for 5 days at 5 mg/kg): tolerable
